Data as given in patent publication US12622975B2, “Peptide-conjugated prodrugs” (priority 2019, dated 2026).
In brackets after ≈: the same amount, converted by molar mass. Several values for one entry are separate records, joined by “and”; a condition that tells them apart may be missing. Identical values can stand only once. Like-named read-outs stand apart in the source and are kept apart here. Numbered stars: 1 amine (or outer) side, 2 acyl side, 3 side chain; on linkers, the order of the positions; unused ones are H or OH. Square brackets hold non-standard residues; d marks the D form. Peptide text beside a SMILES is read from it. * marks the point of attachment. X1 = O=C(CCC(=O)[*:2])OCC(N[*:1])C(O)c1ccc([N+](=O)[O-])cc1; Dichloroacetyl = O=C(C(Cl)Cl)*

Assays:
[1] = system: wild type E. coli strain (K-12); assay: Bacteria culture and inhibitory activity assay (MIC); assay type: cell-based; conditions: wild type E. coli (K-12); for MIC: Escherichia coli
Experimental: Bacteria culture and inhibitory activity assay: Single esterase (BioH, YjfP, FrsA, YbfF, YfbB, YqiA, YeiG, or and YpfH) deletion mutants were purchased from Dharmacon Horizon Discovery (Cambridge, United Kingdom). […] Compounds were added at different concentrations.
Compounds were added at different concentrations.

[2] = Stability in human serum (LC-MS); assay type: in vitro ADME; conditions: human serum, 200 μM, 37° C.
HS-5 cells = assay: Cell viability assay (MTT), HS-5; assay type: cell-based, human; conditions: 24 hours; for cytotoxicity of control compounds against HS-5 cells: around MIC values (0.5 μM)

Row | SMILES | MIC (μM) [1] [µM] | further results
1 | N=C(N)NCCCC(NC(=O)C(CCCNC(=N)N)NC(=O)CCC(=O)OCC(NC(=O)C(Cl)Cl)C(O)c1ccc([N+](=O)[O-])cc1)C(=O)O (centres unmarked) [Compound 2a] | 200 (≈ 147 µg/mL) | 
2 | O=C(O)CNC(=O)CNC(=O)C(Cc1ccccc1)NC(=O)CCC(=O)OCC(NC(=O)C(Cl)Cl)C(O)c1ccc([N+](=O)[O-])cc1 (centres unmarked) [Compound 1n] | 80 (≈ 54.8 µg/mL) | 
3 | O=C(CCC(=O)OCC(NC(=O)C(Cl)Cl)C(O)c1ccc([N+](=O)[O-])cc1)NCC(=O)NCC(=O)NC(Cc1ccccc1)C(=O)O (centres unmarked) [Compound 1k] | 20 (≈ 13.7 µg/mL) | Compounds remaining (%) 0 h [2]: 100%; Compounds remaining (%) 2 h [2]: 0%; Compounds remaining (%) 24 h [2]: 0%
4 | O=C(CCC(=O)OCC(NC(=O)C(Cl)Cl)C(O)c1ccc([N+](=O)[O-])cc1)NCC(=O)NCC(=O)NC(Cc1ccccc1)C(=O)NC(Cc1ccccc1)C(=O)O (centres unmarked) [Compound 1o] (Dichloroacetyl-[X1]GGFF-OH; configuration not given here) | 20 (≈ 16.6 µg/mL) | Compounds remaining (%) 0 h [2]: 100%; Compounds remaining (%) 2 h [2]: 7.2%; Compounds remaining (%) 24 h [2]: 0%
5 | NCCCCC(NC(=O)C(CCCCN)NC(=O)C(Cc1ccccc1)NC(=O)C(Cc1ccccc1)NC(=O)CCC(=O)OCC(NC(=O)C(Cl)Cl)C(O)c1ccc([N+](=O)[O-])cc1)C(=O)O (centres unmarked) [Compound 2e] (Dichloroacetyl-[X1]FFKK-OH; configuration not given here) | 200 (≈ 195 µg/mL) | 
6 | O=C(O)CC(NC(=O)C(CC(=O)O)NC(=O)CCC(=O)OCC(NC(=O)C(Cl)Cl)C(O)c1ccc([N+](=O)[O-])cc1)C(=O)O (centres unmarked) [Compound 2h] | >200 | 
7 | CC(NC(=O)C(C)NC(=O)CCC(=O)OCC(NC(=O)C(Cl)Cl)C(O)c1ccc([N+](=O)[O-])cc1)C(=O)O (centres unmarked) [Compound 1g] | 80 (≈ 45.2 µg/mL) | 
8 | CC(NC(=O)CNC(=O)CCC(=O)OCC(NC(=O)C(Cl)Cl)C(O)c1ccc([N+](=O)[O-])cc1)C(=O)O (centres unmarked) [Compound 1b] | 20 (≈ 11 µg/mL) | 
9 | O=C(CCC(=O)OCC(NC(=O)C(Cl)Cl)C(O)c1ccc([N+](=O)[O-])cc1)NC(Cc1ccccc1)C(=O)NC(Cc1ccccc1)C(=O)O (centres unmarked) [Compound 3a] | 100 (≈ 71.8 µg/mL) | 
10 | NCCCCC(NC(=O)CNC(=O)CCC(=O)OCC(NC(=O)C(Cl)Cl)C(O)c1ccc([N+](=O)[O-])cc1)C(=O)O (centres unmarked) [Compound 2f] | 20 (≈ 12.2 µg/mL) | Compounds remaining (%) 0 h [2]: 100%; Compounds remaining (%) 2 h [2]: 0%; Compounds remaining (%) 24 h [2]: 0%
11 | O=C(O)CNC(=O)CNC(=O)CNC(=O)CNC(=O)CNC(=O)CCC(=O)OCC(NC(=O)C(Cl)Cl)C(O)c1ccc([N+](=O)[O-])cc1 (centres unmarked) [Compound 1q] (Dichloroacetyl-[X1]GGGGG-OH) | 40 (≈ 28.3 µg/mL) | 
12 | CC[C@H]1OC(=O)[C@H](C)C(=O)[C@H](C)[C@@H](O[C@@H]2O[C@H](C)C[C@H](N(C)C)[C@H]2O)[C@](C)(OC)C[C@@H](C)C(=O)[C@H](C)[C@H]2N(CCCCn3cnc(-c4cccnc4)c3)C(=O)O[C@]12C [telithromycin] |  | cytotoxicity of control compounds against HS-5 cells (HS-5 cells): relatively low cytotoxicity
13 | CC(NC(=O)C(C)NC(=O)C(C)NC(=O)CCC(=O)OCC(NC(=O)C(Cl)Cl)C(O)c1ccc([N+](=O)[O-])cc1)C(=O)O (centres unmarked) [Compound 1j] | 100 (≈ 63.6 µg/mL) | 
14 | O=C(N[C@H](CO)[C@H](O)c1ccc([N+](=O)[O-])cc1)C(Cl)Cl [CL, chloramphenicol, reference compound] |  | MIC ([1]; read-out: MIC): 20 µM; MIC ([1]; read-out: MIC (μg/mL)): 6.5 µg/mL; cytotoxicity / cell viability of HS-5 cells (HS-5 cells; 20 μM): reduced the viability
15 | O=C(O)CCC(NC(=O)C(CCC(=O)O)NC(=O)CCC(=O)OCC(NC(=O)C(Cl)Cl)C(O)c1ccc([N+](=O)[O-])cc1)C(=O)O (centres unmarked) [Compound 2g] | >200 | 
16 | O=C(O)CC(NC(=O)CNC(=O)CCC(=O)OCC(NC(=O)C(Cl)Cl)C(O)c1ccc([N+](=O)[O-])cc1)C(=O)O (centres unmarked) [Compound 2j] | 20 (≈ 11.9 µg/mL) | 
17 | N=C(N)NCCCC(NC(=O)C(CCCNC(=N)N)NC(=O)C(Cc1ccccc1)NC(=O)C(Cc1ccccc1)NC(=O)CCC(=O)OCC(NC(=O)C(Cl)Cl)C(O)c1ccc([N+](=O)[O-])cc1)C(=O)O (centres unmarked) [Compound 2d] (Dichloroacetyl-[X1]FFRR-OH; configuration not given here) | 200 (≈ 206 µg/mL) | 
18 | CC(NC(=O)C(C)NC(=O)C(C)NC(=O)CCC(=O)OCC(NC(=O)C(Cl)Cl)C(O)c1ccc([N+](=O)[O-])cc1)C(=O)O (centres unmarked) [Compound 1i] | 80 (≈ 50.9 µg/mL) | 
19 | O=C(O)CNC(=O)C(Cc1ccccc1)NC(=O)CNC(=O)CCC(=O)OCC(NC(=O)C(Cl)Cl)C(O)c1ccc([N+](=O)[O-])cc1 (centres unmarked) [Compound 1m] | 20 (≈ 13.7 µg/mL) | 
20 | O=C(O)CNC(=O)CCC(=O)OCC(NC(=O)C(Cl)Cl)C(O)c1ccc([N+](=O)[O-])cc1 (centres unmarked) [CLsuG] | >200 | MIC (μg/mL) [1]: > 95.8 µg/mL and 95.8 µg/mL
21 | O=C(O)c1cn(C2CC2)c2cc(N3CCNCC3)c(F)cc2c1=O [ciprofloxacin] |  | cytotoxicity of control compounds against HS-5 cells (HS-5 cells): relatively low cytotoxicity
22 | O=C(O)CNC(=O)CNC(=O)CNC(=O)CNC(=O)CCC(=O)OCC(NC(=O)C(Cl)Cl)C(O)c1ccc([N+](=O)[O-])cc1 (centres unmarked) [Compound 1f] (Dichloroacetyl-[X1]GGGG-OH) | 20 (≈ 13 µg/mL) | 
23 | O=C(O)CC(NC(=O)C(CC(=O)O)NC(=O)CCC(=O)OCC(NC(=O)C(Cl)Cl)C(O)c1ccc([N+](=O)[O-])cc1)C(=O)O (centres unmarked) [Compound 2i] | 200 (≈ 131 µg/mL) | 
24 | CNC(=O)CNC(=O)CNC(=O)CCC(=O)OCC(NC(=O)C(Cl)Cl)C(O)c1ccc([N+](=O)[O-])cc1 (centres unmarked) [Compound 1e] | 20 (≈ 11 µg/mL) | 
25 | CC(NC(=O)C(C)NC(=O)CCC(=O)OCC(NC(=O)C(Cl)Cl)C(O)c1ccc([N+](=O)[O-])cc1)C(=O)O (centres unmarked) [Compound 1h] | 100 (≈ 56.5 µg/mL) | 
26 | CC(C)CC(NC(=O)CNC(=O)CCC(=O)OCC(NC(=O)C(Cl)Cl)C(O)c1ccc([N+](=O)[O-])cc1)C(=O)O (centres unmarked) [Compound 1a] | 20 (≈ 11.9 µg/mL) | 
